From article PMC6278284, “Synthesis of Jacaranone-Derived Nitrogenous Cyclohexadienones and Their Antiproliferative and Antiprotozoal Activities” (Molecules, 2018)
Read-outs that look alike come from different tables or passages of the source.

Assays:
[1] = test system: P. falciparum, strain NF54, erythrocytic stages; test: In vitro growth inhibition assay of Plasmodium falciparum NF54 ([3H]-hypoxanthine incorporation); format: cell-based; details: for IC50: Plasmodium falciparum; for SI (IC50 in L6 cells/IC50 P. falciparum): ratio IC50 L6 / IC50 P. falciparum NF54
Experimental: In vitro activity against erythrocytic stages of P. falciparum was determined by a modified [^3H]-hypoxanthine incorporation assay using the drug-sensitive NF54 strain and the standard drug, chloroquine (Sigma C6628). Briefly, parasite cultures incubated in RPMI 1640 medium with 5% AlbuMAX^TM (without hypoxanthine) were exposed to serial drug dilutions in microtiter plates. After 48 h of incubation at 37 °C in a reduced oxygen atmosphere, 0.5 μCi [^3H]-hypoxanthine was added to each well of the plate. Cultures were incubated for a further 24 h before they were harvested onto glass-fiber filters and washed with distilled water. The radioactivity was counted using a Betaplate^TM liquid scintillation counter (Wallac, Zurich). The results were recorded as counts per minute (CPM) per well at each drug concentration and expressed as a percentage of the untreated controls. IC50 values were calculated from the sigmoidal inhibition curves using Microsoft Excel.

[2] = test system: HCT-116 colon cancer cells; test: XTT viability assay, HCT-116; format: cell-based; details: Homo sapiens, read-out: metabolic active cells in % of control; for viability at 5 µg/mL: HCT 116, 5 µg/mL; for viability at 5 µg/mL / viability at 50 µg/mL: 72 h; for viability at 50 µg/mL: HCT 116, 50 µg/mL
Experimental: (§1) Human CCRF-CEM leukemia and MDA-MB-231 breast cancer cells lines were kept in RPMI1640 medium (Gibco®, ThermoFisher Scientific Inc., New York, NY, USA), supplemented with 2 mM L-glutamine (Gibco®), 10% heat-inactivated foetal bovine serum (FBS, Gibco®), 100 units/mL Penicillin (PAA), and 100 µg/mL Streptomycin (Gibco®) (1% Pen/Strep). HCT-116 and U251 cells were cultured in high-glucose Dulbecco’s Modified Eagle Medium (DMEM, Gibco®) containing 2 mM L-glutamine, 10% FBS, and 1% Pen/Strep. MRC-5 cells were grown in Minimum Essential Medium (MEM, Gibco®) supplemented with 2 mM L-glutamine, 10% FBS, and 1% Pen/Strep. All cells were kept in a humidified 5% CO2 atmosphere at 37 °C and passaged at 90% confluence.
(§2) A Cell Proliferation Kit II (XTT) was purchased from Sigma-Aldrich and performed as described previously and in accordance with the manufacturer’s protocol. In brief, adherent cell lines were seeded at a density of 50,000 cells/mL or 100,000 cells/mL (MRC-5) in 96 well plates (100 µL, flat bottom) and grown for 24 h before test compounds were added. Suspension cells (CCRF-CEM) were seeded at 100,000 cells/mL and test compounds were added immediately. After 72 h, XTT solution was added for another 90 min or 4 h (CCRF-CEM cells) and absorbance was measured at 490 nm with a reference wave length of 650 nm (Hidex Sense Microplate Reader 425-301, Hidex, Turku, Finland). Results are expressed as a percentage of the vehicle-treated (0.5% DMSO) control cells. Vinblastine served as the positive control (0.01 µg/mL).

[3] = test system: CCRF-CEM leukemia cells; test: XTT viability assay, CCRF-CEM; format: cell-based; details: Homo sapiens, read-out: metabolic active cells in % of control; for viability at 5 µg/mL / viability at 50 µg/mL: 72 h
Experimental: as §1, §2

[4] = test system: MRC-5 non-tumorigenic lung fibroblasts; test: XTT viability assay, MRC-5; format: cell-based, human; details: Homo sapiens, MRC5, read-out: metabolic active cells in % of control; for viability at 5 µg/mL: MRC-5, 5 µg/mL; for viability at 5 µg/mL / viability at 50 µg/mL: 72 h; for viability at 50 µg/mL: MRC-5, 50 µg/mL
Experimental: as §1, §2

[5] = test system: L6 cells rat skeletal myoblasts; test: Cytotoxicity against L6 cells (Alamar Blue); format: cell-based; details: read-out: Cyt. L6 IC50
Experimental: Assays were performed in 96-well microtiter plates, each well containing 100 μL of RPMI 1640 medium supplemented with 1% L-glutamine (200 mM) and 10% foetal bovine serum, and 4000 L6 cells (a […] cell line derived from rat skeletal myoblasts). Serial drug dilutions of 11 threefold dilution steps covering a range from 100 to 0.002 μg/mL were prepared. After 72 h of incubation, the plates were inspected under an inverted microscope to assure growth of the controls and sterile conditions. 10 μL of Alamar Blue solution was then added to each well and the plates incubated for another 2 h. Then, the plates were read with a Spectramax Gemini XS microplate fluorometer (Molecular Devices Cooperation, Sunnyvale, CA, USA) using an excitation wavelength of 536 nm and an emission wavelength of 588 nm. The IC50 values were calculated by linear regression from the sigmoidal dose inhibition curves using the microplate reader software, Softmax Pro (Molecular Devices Cooperation, Sunnyvale, CA, USA). Podophyllotoxin (Sigma P4405) was used as the control.

[6] = test system: MDA-MB-231 breast cancer cells; test: XTT viability assay, MDA-MB-231; format: cell-based; details: Homo sapiens, read-out: metabolic active cells in % of control; for viability at 5 µg/mL: MDA-MB-231, 5 µg/mL; for viability at 5 µg/mL / viability at 50 µg/mL: 72 h; for viability at 50 µg/mL: MDA-MB-231, 50 µg/mL
Experimental: as §1, §2

[7] = test system: U251 glioblastoma cells; test: XTT viability assay, U251; format: cell-based; details: Homo sapiens, U-251, read-out: metabolic active cells in % of control; for viability at 5 µg/mL: U251, 5 µg/mL; for viability at 5 µg/mL / viability at 50 µg/mL: 72 h; for viability at 50 µg/mL: U251, 50 µg/mL
Experimental: as §1, §2

[8] = test system: T. brucei rhodesiense, strain STIB900 trypomastigote forms; test: In vitro growth inhibition assay of Trypanosoma brucei rhodesiense (Alamar Blue); format: cell-based; details: for IC50: Trypanosoma brucei, 72 h, read-out: T.b.rhod. IC50; for SI (IC50 in L6 cells/IC50 T. b. rhodesiense): ratio IC50 L6 / IC50 T. b. rhodesiense STIB900
Experimental: Trypanosoma brucei rhodesiense, STIB 900 strain, and the standard drug, melarsoprol, were used for the assay. Minimum Essential Medium (50 μL) supplemented with 25 mM HEPES, 1g/L additional glucose, 1% MEM non-essential amino acids (100×), 0.2 mM 2-mercaptoethanol, 1 mM Na-pyruvate, and 15% heat-inactivated horse serum was added to each well of a 96-well microtiter plate. Serial drug dilutions of 11 three-fold dilution steps covering a range from 100 to 0.002 μg/mL were prepared. Then, 4 × 10^3 bloodstream forms of T. b. rhodesiense (STIB 900) in 50 μL were added to each well and the plate was incubated at 37 °C under a 5% CO2 atmosphere for 72 h. 10 μL Alamar Blue (resazurin, 12.5 mg in 100 mL double-distilled water) was then added to each well and incubation continued for a further 2–4 h. Then, the plates were read with a Spectramax Gemini XS microplate fluorometer (Molecular Devices Cooperation, Sunnyvale, CA, USA) using an excitation wavelength of 536 nm and an emission wavelength of 588 nm. The IC50 values were calculated from the sigmoidal inhibition curves using the microplate reader software, Softmax Pro (Molecular Devices Cooperation, Sunnyvale, CA, USA). Melarsoprol was used as the control.

[9] = L6 rat skeletal myoblasts, 72 h
[10] = strain NF54, erythrocytic stages, read-out: P. falc. IC50
[11] = strain STIB900, trypomastigote forms

SMILES	melting point [°C]	IC50 [1, 10] [µM]	IC50 [8, 11] [µM]	viability at 5 µg/mL [2] [%]	viability at 50 µg/mL [2] [%]	viability at 5 µg/mL [3] [%]	viability at 50 µg/mL [3] [%]	viability at 5 µg/mL [4] [%]	viability at 50 µg/mL [4] [%]	IC50 [5, 9] [µM]	viability at 5 µg/mL [6] [%]	viability at 50 µg/mL [6] [%]	viability at 5 µg/mL [7] [%]	viability at 50 µg/mL [7] [%]	SI (IC50 in L6 cells/IC50 P. falciparum) [1]	SI (IC50 in L6 cells/IC50 T. b. rhodesiense) [8]	further results
CCN(CC)CCCC(C)Nc1ccnc2cc(Cl)ccc12 (centres unmarked) [Chl., Chloroquine, reference compound]																	IC50 ([1]; NF54, read-out: P. falc. IC50): 0.002 µM
O=C1C=CC(O)(CCN2C(=O)C3CCCCC3C2O)C=C1 (centres unmarked) [Compound 15, 3-Hydroxy-N-[2-(1-hydroxy-4-oxocyclohexa-2,5-dien-1-yl)ethyl]octahydroisoindole-1-one]	127 to 128	6.18	1.52	111	1.44	42.4	0.57	135	4.47	12.6	105	6.05	97.6	2.24	2.0	8.3	
Nc1nc(N)nc(Nc2ccc([As]3SCC(CO)S3)cc2)n1 (centres unmarked) [Mel., melarsoprol, reference compound]																	IC50 [8]: 0.004 µM
COc1cc([C@@H]2c3cc4c(cc3[C@H](O)[C@H]3COC(=O)[C@H]23)OCO4)cc(OC)c1OC [Pod., podophyllotoxin, reference compound]																	IC50 ([5]; Rattus norvegicus, L6, 72 h): 0.007 µM
CC[C@]1(O)C[C@@H]2CN(CCc3c([nH]c4ccccc34)[C@@](C(=O)OC)(c3cc4c(cc3OC)N(C)[C@H]3[C@@](O)(C(=O)OC)[C@H](OC(C)=O)[C@]5(CC)C=CCN6CC[C@]43[C@@H]65)C2)C1 [VBN, Vinblastine, reference compound]																	viability at 0.01 µg/mL ([2]; HCT 116, 0.01 µg/mL, positive control): 39 ± 5.1%; viability at 0.01 µg/mL ([3]; 0.01 µg/mL, positive control): 23.6 ± 7.62%; viability at 0.01 µg/mL ([4]; MRC-5, 0.01 µg/mL, positive control): 63.8 ± 5.29%; viability at 0.01 µg/mL ([6]; MDA-MB-231, 0.01 µg/mL, positive control): 42 ± 7.97%; viability at 0.01 µg/mL ([7]; U251, 0.01 µg/mL, positive control): 45.3 ± 3.81%

Now from value to compound, other results behind:

melting point [°C]	IC50 [1, 10] [µM]	IC50 [8, 11] [µM]	SMILES	viability at 5 µg/mL [2] [%]	viability at 50 µg/mL [2] [%]	viability at 5 µg/mL [3] [%]	viability at 50 µg/mL [3] [%]	viability at 5 µg/mL [4] [%]	viability at 50 µg/mL [4] [%]	IC50 [5, 9] [µM]	viability at 5 µg/mL [6] [%]	viability at 50 µg/mL [6] [%]	viability at 5 µg/mL [7] [%]	viability at 50 µg/mL [7] [%]	SI (IC50 in L6 cells/IC50 P. falciparum) [1]	SI (IC50 in L6 cells/IC50 T. b. rhodesiense) [8]	further results
161 to 162	3.78	1.58	O=C1C=CC(O)(CCN2C(=O)c3ccccc3C2=O)C=C1 [Compound 13a, N-[2-(1-Hydroxy-4-oxocyclohexa-2,5-dien-1-yl)ethyl]phthalimide]	55.4	1.76	4.42	1.15	43.7	1.93	5.08	37.8	17.4	90.7	3.21	1.3	3.2	
	8.63	6.93	O=C1C=CC(O)(CCN2C(=O)CCC2=O)C=C1 [Compound 13c, N-[2-(1-Hydroxy-4-oxocyclohexa-2,5-dien-1-yl)ethyl]succinimide]	99	1.1	79.1	2.15	139	3.55	9.9	79.8	5.72	93.3	0.59			
213 to 214	3.24	5.71	O=C1C=CC(O)(CCN2C(=O)c3cc(Cl)c(Cl)cc3C2=O)C=C1 [Compound 13d, 4,5-Dichloro-N-[2-(1-hydroxy-4-oxocyclohexa-2,5-dien-1-yl)ethyl]phthalimide]	41.2	0.44	13.8	3.33	46.4	1.01	6.28	28.6	24.8	72.1	1.79	1.9	1.1	
168 to 169	74.4	2.26	O=C1C=CC(O)(CCN2C(=O)C(Cl)=C(Cl)C2=O)C=C1 [Compound 13e, 3,4-Dichloro-N-[2-(1-hydroxy-4-oxocyclohexa-2,5-dien-1-yl)ethyl]maleimide]	45.3	-0.43	-2.6	0.59	97	0.38	10.3	81.3	9.53	95.6	1.95	0.1	4.5	
135 to 136	3.04	1.7	O=C1C=CC(O)(CCN2C(=O)C3CCCCC3C2=O)C=C1 (centres unmarked) [Compound 13h, N-[2-(1-Hydroxy-4-oxocyclohexa-2,5-dien-1-yl)ethyl]hexahydrophthalimide]	44.3	0.49	15.7	0.69	57.6	0.76	2.96	70.8	16.4	74.9	0.18	1.0	1.7	
